Test results published in BindingDB's records for doi:10.1016/s0960-894x(03)00628-0 (Wyeth Research, 2003).

Assay: Inhibition of Src protein tyrosine kinase

IC50: > 10 µM
SMILES: COCCOc1cc2nc3ncnc(Nc4cc(OC)c(Cl)cc4Cl)c3cc2cc1OC [(2,4-Dichloro-5-methoxy-phenyl)-[7-methoxy-8-(2-methoxy-ethoxy)-pyrimido[4,5-b]quinolin-4-yl]-amine]
